Test results as given in patent US20240083861A1, “HSD17B13 INHIBITORS AND USES THEREOF” (FL2022-001, Inc., priority 2020, published 2024).

molecular target: T1, Recombinant human HSD17B13 enzyme (Homo sapiens, UniProt Q7Z5P4); test: HSD17b13 NAD(P)H-Glo biochemical assay; conditions: 50 uM estradiol, 1 mM NAD+, NAD(P)H-Glo luminescence; read-out: HSD17β13 IC50
T1 sequence (Q7Z5P4 20-300): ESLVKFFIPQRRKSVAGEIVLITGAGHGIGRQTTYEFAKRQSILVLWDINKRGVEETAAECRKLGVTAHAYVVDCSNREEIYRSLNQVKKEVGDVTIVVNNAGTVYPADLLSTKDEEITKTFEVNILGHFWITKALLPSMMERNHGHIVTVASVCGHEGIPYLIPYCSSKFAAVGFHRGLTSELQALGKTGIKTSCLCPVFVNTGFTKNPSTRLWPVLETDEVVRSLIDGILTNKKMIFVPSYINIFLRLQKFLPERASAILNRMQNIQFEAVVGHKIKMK
Outline: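 Recombinant human HSD17B13 in 20 mM Tris pH7.4 with 0.002% Tween-20 and 0.02% BSA was preincubated with inhibitor for 20 minutes at RT. The reaction ran 3 hours at 37° C with 50 uM estradiol and 1 mM NAD+ (final). NADH formed was detected by NAD(P)H-Glo luminescence after 1 hour at RT.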

SMILES | IC50 [nM]
CN1CCN(c2ncc3c(-c4cc(C(F)(F)F)c(F)c(O)c4F)nn(C)c3n2)CC1c1ncc[nH]1 (stereo not drawn) [Compound 18.101, 3-(6-(3-(1H-Imidazol-2-yl)-4-methylpiperazin-1-y1)-1-methyl-1H-pyrazolo[3,4-d]pyrimidin-3-yl)-2,6-difluoro-5-(trifluoromethyl)phenol] | 100 to 1000
Cn1nc(-c2cc(C(F)(F)F)c(F)c(O)c2F)c2cnc(N3CCOCC3(C)C)nc21 [Compound 18.102, 3-(6-(3,3-Dimethylmorpholino)-1-methyl-1H-pyrazolo[3,4-d]pyrimidin-3-y1)-2,6-difluoro-5-(trifluoromethyl)phenol] | < 100
Cn1nc(-c2cc(C(F)(F)F)c(F)c(O)c2F)c2cnc(N3CCOC(C)(C)C3)nc21 [Compound 18.103, 3-(6-(2,2-Dimethylmorpholino)-1-methyl-1H-pyrazolo[3,4-d]pyrimidin-3-y1)-2,6-difluoro-5-(trifluoromethyl)phenol] | < 100
Cn1nc(-c2cc(C(F)(F)F)c(F)c(O)c2F)c2cnc(N3CCOCC3CC(F)(F)F)nc21 (stereo not drawn) [Compound 18.107, 2,6-Difluoro-3-(1-methyl-6-(3-(2,2,2-trifluoroethyl)morpholino)-1H-pyrazolo[3,4-d]pyrimidin-3-y1)-5-(trifluoromethyl)phenol] | < 100
Cn1nc(-c2cc(C(F)(F)F)c(F)c(O)c2F)c2cnc(N3CCN(S(C)(=O)=O)[C@@H](c4ccccc4)C3)nc21 [Compound 18.109, (S)-2,6-Difluoro-3-(1-methyl-6-(4-(methylsulfony1)-3-phenylpiperazin-1-y1)-1H-pyrazolo[3,4-d]pyrimidin-3-y1)-5-(trifluoromethyl)phenol] | < 100
Cn1nc(-c2cc(C(F)(F)F)c(F)c(O)c2F)c2cnc(N3CC4CC3CN4S(C)(=O)=O)nc21 (stereo not drawn) [Compound 18.110, 2,6-Difluoro-3-(1-methyl-6-(5-(methylsulfony1)-2,5-diazabicyclo[2.2.1]heptan-2-y1)-1H-pyrazolo[3,4-d]pyrimidin-3-yl)-5-(trifluoromethyl)phenol] | < 100
Cn1nc(-c2cc(C(F)(F)F)c(F)c(O)c2F)c2cnc(N(Cc3ccccc3)C3CC3)nc21 [Compound 18.117, 3-(6-(Benzyl(cyclopropyl)amino)-1-methyl-1H-pyrazolo[3,4-d]pyrimidin-3-y1)-2,6-difluoro-5-(trifluoromethyl)phenol] | < 100
Cn1nc(-c2cc(C(F)(F)F)c(F)c(O)c2F)c2cnc(N3CCOC(C)(c4ccccc4)C3)nc21 (stereo not drawn) [Compound 18.119, 2,6-Difluoro-3-(1-methyl-6-(2-methyl-2-phenylmorpholino)-1H-pyrazolo[3,4-d]pyrimidin-3-y1)-5-(trifluoromethyl)phenol] | < 100
C[C@@H]1CN(C(=O)c2ccccc2)CCN1c1ncc2c(-c3cc(C(F)(F)F)c(F)c(O)c3F)nn(C)c2n1 [Compound 18.120, (R)-(4-(3-(2,4-Difluoro-3-hydroxy-5-(trifluoromethyl)phenyl)-1-methyl-1H-pyrazolo[3,4-d]pyrimidin-6-yl)-3-methylpiperazin-1-y1)(phenyl)methanone] | < 100

Now from value to compound:

IC50 [nM] | SMILES
< 100 | Cn1nc(-c2cc(C(F)(F)F)c(F)c(O)c2F)c2cnc(N3CCOCC3C3CCC3)nc21 (stereo not drawn) [Compound 18.104, 3-(6-(3-Cyclobutylmorpholino)-1-methyl-1H-pyrazolo[3,4-d]pyrimidin-3-y1)-2,6-difluoro-5-(trifluoromethyl)phenol]
< 100 | Cn1nc(-c2cc(C(F)(F)F)c(F)c(O)c2F)c2cnc(N3CCOC4(CC4)C3)nc21 [Compound 18.105, 2,6-Difluoro-3-(1-methyl-6-(4-oxa-7-azaspiro[2.5]octan-7-y1)-1H-pyrazolo[3,4-d]pyrimidin-3-y1)-5-(trifluoromethyl)phenol]
< 100 | Cn1nc(-c2cc(C(F)(F)F)c(F)c(O)c2F)c2cnc(N3CCOC4(CCCC4)C3)nc21 [Compound 18.106, 2,6-Difluoro-3-(1-methyl-6-(6-oxa-9-azaspiro[4.5]decan-9-yl)-1H-pyrazolo[3,4-d]pyrimidin-3-y1)-5-(trifluoromethyl)phenol]
< 100 | Cn1nc(-c2cc(C(F)(F)F)c(F)c(O)c2F)c2cnc(N3CCC(C)(C)CC3)nc21 [Compound 18.108, 3-(6-(4,4-Dimethylpiperidin-1-yl)-1-methyl-1H-pyrazolo[3,4-d]pyrimidin-3-yl)-2,6-difluoro-5-(trifluoromethyl)phenol]
< 100 | Cn1nc(-c2cc(C(F)(F)F)c(F)c(O)c2F)c2cnc(N3CC4CCC(C3)N4S(C)(=O)=O)nc21 [Compound 18.111, 2,6-Difluoro-3-(1-methyl-6-(8-(methylsulfony1)-3,8-diazabicyclo[3.2.1]octan-3-yl)-1H-pyrazolo[3,4-d]pyrimidin-3-y1)-5-(trifluoromethyl)phenol]
< 100 | Cn1nc(-c2cc(C(F)(F)F)c(F)c(O)c2F)c2cnc(N3CCN(S(C)(=O)=O)C4(COC4)C3)nc21 [Compound 18.112, 2,6-Difluoro-3-(1-methyl-6-(5-(methylsulfonyl)-2-oxa-5,8-diazaspiro[3.5]nonan-8-yl)-1H-pyrazolo[3,4-d]pyrimidin-3-y1)-5-(trifluoromethyl)phenol]
< 100 | Cn1nc(-c2cc(C(F)(F)F)c(F)c(O)c2F)c2cnc(N3CCOC(C4CCCCC4)C3)nc21 (stereo not drawn) [Compound 18.113, 3-(6-(2-Cyclohexylmorpholino)-1-methyl-1H-pyrazolo[3,4-d]pyrimidin-3-yl)-2,6-difluoro-5-(trifluoromethyl)phenol]
< 100 | Cn1nc(-c2cc(C(F)(F)F)c(F)c(O)c2F)c2cnc(N3CCN(C(=O)c4ccccc4)CC3)nc21 [Compound 18.114, (4-(3-(2,4-Difluoro-3-hydroxy-5-(trifluoromethyl)phenyl)-1-methyl-1H-pyrazolo[3,4-d]pyrimidin-6-y1)piperazin-1-yl)(phenyl)methanone]
< 100 | Cn1nc(-c2cc(C(F)(F)F)c(F)c(O)c2F)c2cnc(N3CCN(C(=O)C4CCCCC4)CC3)nc21 [Compound 18.115, Cyclohexyl(4-(3-(2,4-difluoro-3-hydroxy-5-(trifluoromethyl)phenyl)-1-methyl-1H-pyrazolo[3,4-d]pyrimidin-6-yl)piperazin-1-yl)methanone]
< 100 | Cn1nc(-c2cc(C(F)(F)F)c(F)c(O)c2F)c2cnc(N3CCN(C(=O)Nc4ccccc4)CC3)nc21 [Compound 18.116, 4-(3-(2,4-Difluoro-3-hydroxy-5-(trifluoromethyl)phenyl)-1-methyl-1H-pyrazolo[3,4-d]pyrimidin-6-yl)-N-phenylpiperazine-1-carboxamide]
< 100 | Cn1nc(-c2cc(C(F)(F)F)c(F)c(O)c2F)c2cnc(N3CCN(S(C)(=O)=O)C(C#N)C3)nc21 (stereo not drawn) [Compound 18.118, 4-(3-(2,4-Difluoro-3-hydroxy-5-(trifluoromethyl)phenyl)-1-methyl-1H-pyrazolo[3,4-d]pyrimidin-6-yl)-1-(methylsulfonyl)piperazine-2-carbonitrile]
100 to 1000 | Cn1nc(-c2cc(C(F)(F)F)c(F)c(O)c2F)c2cnc(N3CCN(C(=O)c4ccccn4)CC3)nc21 [Compound 18.121, (4-(3-(2,4-Difluoro-3-hydroxy-5-(trifluoromethyl)phenyl)-1-methyl-1H-pyrazolo[3,4-d]pyrimidin-6-yl)piperazin-1-yl)(pyridin-2-yl)methanone]
